# Where a SMILES comes first, the peptide text is derived from it. Bridges are numbered along the chain shown (N, C = ends). [ ]: non-standard residue; d: D form. d(aThr) = C[C@@H](O)[C@@H](N)C(=O)O
# Target: Somatostatin receptor type 2 (Mus musculus, UniProt P30875)
# Assay: Compound was tested for the inhibition of mSSTR2b
# Somatostatin receptor type 2, sequence (P30875 whole entry): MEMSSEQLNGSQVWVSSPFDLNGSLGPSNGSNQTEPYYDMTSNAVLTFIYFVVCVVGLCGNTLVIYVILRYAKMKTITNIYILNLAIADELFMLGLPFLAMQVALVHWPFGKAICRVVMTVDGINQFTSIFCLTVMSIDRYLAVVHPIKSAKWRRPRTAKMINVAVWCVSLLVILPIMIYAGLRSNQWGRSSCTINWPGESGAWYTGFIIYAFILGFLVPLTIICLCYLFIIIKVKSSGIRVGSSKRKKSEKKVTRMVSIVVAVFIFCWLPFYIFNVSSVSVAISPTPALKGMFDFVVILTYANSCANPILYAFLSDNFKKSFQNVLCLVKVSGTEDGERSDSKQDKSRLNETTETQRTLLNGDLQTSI
row,IC50 [nM],Compound
1,15.6,C[C@@H](O)[C@H](NC(=O)[C@@H]1CSC[C@H](NC(=O)[C@H](N)Cc2ccccc2)C(=O)N[C@@H](Cc2ccccc2)C(=O)N[C@H](Cc2c[nH]c3ccccc23)C(=O)N[C@@H](CCCCN)C(=O)N[C@@H]([C@@H](C)O)C(=O)N1)C(N)=O
2,0.28,C[C@@H](O)[C@H](NC(=O)[C@@H]1CSSC[C@H](NC(=O)[C@H](N)Cc2ccccc2)C(=O)N[C@@H](Cc2ccccc2)C(=O)N[C@H](Cc2c[nH]c3ccccc23)C(=O)N[C@@H](CCCCN)C(=O)N[C@@H]([C@@H](C)O)C(=O)N1)C(=O)O

# Target: T1, Somatostatin receptor type 5 (Rattus norvegicus, UniProt P30938)
# T1 sequence (P30938 whole entry): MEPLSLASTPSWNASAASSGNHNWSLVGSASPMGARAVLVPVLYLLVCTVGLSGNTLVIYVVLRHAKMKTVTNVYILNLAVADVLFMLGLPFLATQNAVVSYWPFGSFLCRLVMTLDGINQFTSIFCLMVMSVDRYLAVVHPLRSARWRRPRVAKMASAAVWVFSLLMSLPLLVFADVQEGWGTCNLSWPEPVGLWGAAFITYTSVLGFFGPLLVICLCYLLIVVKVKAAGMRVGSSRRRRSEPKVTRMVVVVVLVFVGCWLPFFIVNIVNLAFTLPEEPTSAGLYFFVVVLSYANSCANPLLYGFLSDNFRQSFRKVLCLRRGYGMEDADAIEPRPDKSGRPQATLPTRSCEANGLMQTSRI
# Assay: Compound was tested for the inhibition of rSSTR5
row,IC50 [nM],Compound
1,1.04,C[C@@H](O)[C@@H](NC(=O)[C@H]1CSSC[C@H](NC(=O)[C@@H](N)Cc2ccccc2)C(=O)N[C@@H](Cc2ccccc2)C(=O)N[C@H](Cc2c[nH]c3ccccc23)C(=O)N[C@@H](CCCCN)C(=O)N[C@H]([C@@H](C)O)C(=O)N1)C(=O)O
2,5.5,C[C@@H](O)[C@H](NC(=O)[C@@H]1CSC[C@@H](NC(=O)[C@H](N)Cc2ccccc2)C(=O)N[C@H](Cc2ccccc2)C(=O)N[C@@H](Cc2c[nH]c3ccccc23)C(=O)N[C@H](CCCCN)C(=O)N[C@@H]([C@@H](C)O)C(=O)N1)C(N)=O

# The next lines start with the compound.
row,Compound,IC50 [nM]
1,C[C@@H](O)[C@@H]1NC(=O)[C@@H](CCCCN)NC(=O)[C@H](Cc2c[nH]c3ccccc23)NC(=O)[C@@H](Cc2ccccc2)NC(=O)[C@H](NC(=O)[C@H](N)Cc2ccccc2)CSC[C@@H](C(=O)O)NC1=O,500
2,C[C@@H](O)[C@H]1NC(=O)[C@H](CCCCN)NC(=O)[C@@H](Cc2c[nH]c3ccccc23)NC(=O)[C@H](Cc2ccccc2)NC(=O)[C@@H](NC(=O)[C@@H](N)Cc2ccccc2)CSSC[C@H](C(=O)O)NC1=O (H-FCF[dW]K[d(aThr)][dC]-OH; disulfide 2-7),10.6

# Reference: ChEMBL document CHEMBL1130422, “A refined model for the somatostatin pharmacophore: conformational analysis of lanthionine-sandostatin analogs” (J Med Chem, 1997)
